Biological target: T1, SCD-1 (Homo sapiens, UniProt O00767)
T1 construct: 50 μg of protein from a HepG2 cell P2 pellet; endogenous in cells; host or cells: HepG2 cells (P2 pellet)
T1 sequence (O00767 1-359): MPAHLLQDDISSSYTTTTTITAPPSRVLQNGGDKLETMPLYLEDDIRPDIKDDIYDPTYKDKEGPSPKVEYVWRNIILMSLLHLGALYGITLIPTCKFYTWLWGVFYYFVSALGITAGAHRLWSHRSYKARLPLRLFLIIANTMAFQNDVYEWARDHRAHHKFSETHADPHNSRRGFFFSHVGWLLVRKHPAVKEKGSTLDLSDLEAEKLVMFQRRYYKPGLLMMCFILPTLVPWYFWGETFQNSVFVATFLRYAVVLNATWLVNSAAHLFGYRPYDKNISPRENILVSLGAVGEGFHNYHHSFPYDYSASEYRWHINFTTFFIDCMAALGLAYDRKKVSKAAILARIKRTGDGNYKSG
Experiment: Stearoyl-CoA desaturase assay (HepG2 cell P2 pellet)
Assay type: biochemical
Settings: Table 2, compounds of formula (Ib); protein from HepG2 cell P2 pellet, 20 μM stearoyl-CoA, 15 min at 25° C.; read-out: Ave IC50
Method: Stearoyl-CoA desaturase assays were performed in according to Talamo and Bloch. […] Assays were run in triplicate in 100-μl volumes of 100 mM TrisHCl, pH 7.3, containing 20 μM stearoyl-CoA, 2 mM β-NADH, and 50 μg of protein from a HepG2 cell P2 pellet. Since SCD-1 is the only isoform of SCD expressed in these cells, the assay is specific for SCD-1 with these cells as the source of enzyme. Reaction mixtures were incubated fifteen minutes at 25° C. and reactions were then stopped with a volume of trichloroacetic acid giving a final concentration of 0.2%. After five minutes, a 90-μl volume was transferred to a Millipore Multiscreen HTS 96-well filtration plate (MSHVN4B50) containing 125 μl of 10% charcoal in each well, to which vacuum had been previously applied. Plates were shaken fifteen minutes and then filtered into a collection plate. Fifty-μI volumes of filtrate were transferred to another plate containing 150 μl of MicroScint 40 for counting on a TopCount scintillation counter.

Row | IC50 [nM] | Compound
1 | 0.5 to 49 | O=C(NC[C@H](O)CO)c1cnc(N2CCC3(CC2)CCN(Cc2cccc(C(F)(F)F)c2)c2ccccc2O3)s1 [Compound 61]
2 | 0.5 to 49 | O=C(NCCCO)c1cnc(N2CCC3(CC2)CCN(Cc2cccc(C(F)(F)F)c2)c2ccccc2O3)s1 [Compound 62]
3 | 50 to 499 | CC(C)(C)c1ccc(CN2CCC3(CCN(c4ncc(C(=O)O)s4)CC3)Oc3ccccc32)cc1 [Compound 64]
4 | 50 to 499 | CC(C)(C)c1ccc(CN2CCC3(CCN(c4ncc(C(=O)NC5CC5)s4)CC3)Oc3ccccc32)cc1 [Compound 65]
5 | 50 to 499 | CCN(C)C(=O)c1cnc(N2CCC3(CC2)CCN(Cc2ccc(C(C)(C)C)cc2)c2ccccc2O3)s1 [Compound 66]
6 | 500 to 10000 | CC(C)(C)c1ccc(CN2CCC3(CCN(c4ncc(C(=O)NCc5ccccc5)s4)CC3)Oc3ccccc32)cc1 [Compound 67]
7 | 0.5 to 49 | CCNC(=O)c1cnc(N2CCC3(CC2)CCN(Cc2ccc(C(C)(C)C)cc2)c2ccccc2O3)s1 [Compound 68]
8 | 0.5 to 49 | COC(=O)CCNC(=O)c1cnc(N2CCC3(CC2)CCN(Cc2ccc(C(C)(C)C)cc2)c2ccccc2O3)s1 [Compound 69]
9 | 0.5 to 49 | CNC(=O)c1cnc(N2CCC3(CC2)CCN(Cc2ccc(C(C)(C)C)cc2)c2ccccc2O3)s1 [Compound 70]
10 | > 10000 | CC(C)(C)c1ccc(CN2CCC3(CCN(c4ncc(C(=O)Nc5ccccc5)s4)CC3)Oc3ccccc32)cc1 [Compound 71]
11 | 500 to 10000 | CC(C)(C)c1ccc(CN2CCC3(CCN(c4ncc(C(=O)N5CCCC5)s4)CC3)Oc3ccccc32)cc1 [Compound 72]
12 | 0.5 to 49 | Cn1cnc(-c2cnc(N3CCC4(CC3)CCN(Cc3ccc(C(C)(C)C)cc3)c3ccccc3O4)s2)n1 [Compound 73]
13 | 0.5 to 49 | CC(C)(C)c1ccc(CN2CCC3(CCN(c4ncc(C(=O)O)s4)CC3)Oc3c(F)cccc32)cc1 [Compound 74]
14 | 0.5 to 49 | CC(C)(C)c1ccc(CN2CCC3(CCN(c4ncc(C(N)=O)s4)CC3)Oc3c(F)cccc32)cc1 [Compound 76]
15 | 500 to 10000 | Cc1ccc(CCNC(=O)c2cnc(N3CCC4(CC3)CCN(Cc3ccc(C(C)(C)C)cc3)c3cccc(F)c3O4)s2)s1 [Compound 78]
16 | 50 to 499 | CC(C)(C)c1ccc(CN2CCC3(CCN(c4ncc(C(=O)NCC5CCCO5)s4)CC3)Oc3c(F)cccc32)cc1 (stereo not drawn) [Compound 79]
17 | 500 to 10000 | CC(C)(C)c1ccc(CN2CCC3(CCN(c4ncc(C(=O)NCC[C@H]5CC[C@H](O)C5)s4)CC3)Oc3c(F)cccc32)cc1 [Compound 80]
18 | 500 to 10000 | CC(C)(C)c1ccc(CN2CCC3(CCN(c4ncc(C(=O)NCCN5CCCC5=O)s4)CC3)Oc3c(F)cccc32)cc1 [Compound 81]
19 | > 10000 | CC(C)(C)c1ccc(CN2CCC3(CCN(c4ncc(C(=O)NC[C@H]5CC[C@H](O)C5)s4)CC3)Oc3c(F)cccc32)cc1 [Compound 82]
20 | 500 to 10000 | CC(C)(C)c1ccc(CN2CCC3(CCN(c4ncc(C(=O)NCCc5cccs5)s4)CC3)Oc3c(F)cccc32)cc1 [Compound 83]
21 | 500 to 10000 | CC(C)CNC(=O)c1cnc(N2CCC3(CC2)CCN(Cc2ccc(C(C)(C)C)cc2)c2cccc(F)c2O3)s1 [Compound 84]
22 | 50 to 499 | CC(C)(C)c1ccc(CN2CCC3(CCN(c4ncc(C(=O)NCc5ccccn5)s4)CC3)Oc3c(F)cccc32)cc1 [Compound 85]
23 | 500 to 10000 | CC(C)(C)c1ccc(CN2CCC3(CCN(c4ncc(C(=O)NCCCn5ccnn5)s4)CC3)Oc3c(F)cccc32)cc1 [Compound 86]
24 | 50 to 499 | CC(C)(C)c1ccc(CN2CCC3(CCN(c4ncc(C(=O)NCc5ccccc5F)s4)CC3)Oc3c(F)cccc32)cc1 [Compound 87]

Row | IC50 [nM] | Compound
25 | 0.5 to 49 | CC(C)(C)c1ccc(CN2CCC3(CCN(c4ncc(C(=O)NCC5OCCO5)s4)CC3)Oc3c(F)cccc32)cc1 [Compound 88]
26 | 50 to 499 | CC(C)(C)c1ccc(CN2CCC3(CCN(c4ncc(C(=O)NCC5CCCO5)s4)CC3)Oc3c(F)cccc32)cc1 (stereo not drawn) [Compound 89]
27 | 500 to 10000 | Cc1nn(C)c(C)c1CNC(=O)c1cnc(N2CCC3(CC2)CCN(Cc2ccc(C(C)(C)C)cc2)c2cccc(F)c2O3)s1 [Compound 90]
28 | 50 to 499 | CC(C)(C)c1ccc(CN2CCC3(CCN(c4ncc(C(=O)NCCC(N)=O)s4)CC3)Oc3c(F)cccc32)cc1 [Compound 91]
29 | 500 to 10000 | CC(C)(C)c1ccc(CN2CCC3(CCN(c4ncc(C(=O)NCCc5ccsc5)s4)CC3)Oc3c(F)cccc32)cc1 [Compound 92]
30 | 50 to 499 | C[S+]([O-])CCNC(=O)c1cnc(N2CCC3(CC2)CCN(Cc2ccc(C(C)(C)C)cc2)c2cccc(F)c2O3)s1 (stereo not drawn) [Compound 93]
31 | 50 to 499 | CCCNC(=O)c1cnc(N2CCC3(CC2)CCN(Cc2ccc(C(C)(C)C)cc2)c2cccc(F)c2O3)s1 [Compound 94]
32 | 50 to 499 | CC(C)(C)c1ccc(CN2CCC3(CCN(c4ncc(C(=O)NC[C@@H](O)CO)s4)CC3)Oc3c(F)cccc32)cc1 [Compound 95]
33 | 0.5 to 49 | CC(C)(C)c1ccc(CN2CCC3(CCN(c4ncc(C(=O)NCCCO)s4)CC3)Oc3c(F)cccc32)cc1 [Compound 96]
34 | 500 to 10000 | Cc1cc(CNC(=O)c2cnc(N3CCC4(CC3)CCN(Cc3ccc(C(C)(C)C)cc3)c3cccc(F)c3O4)s2)no1 [Compound 97]
35 | 50 to 499 | CC(C)(C)c1ccc(CN2CCC3(CCN(c4ncc(C(=O)NCC(F)(F)F)s4)CC3)Oc3c(F)cccc32)cc1 [Compound 98]
36 | 500 to 10000 | CC(C)(C)c1ccc(CN2CCC3(CCN(c4ncc(C(=O)NC[C@H](O)c5ccccc5)s4)CC3)Oc3c(F)cccc32)cc1 [Compound 99]
37 | > 10000 | Cc1n[nH]c(C)c1CCNC(=O)c1cnc(N2CCC3(CC2)CCN(Cc2ccc(C(C)(C)C)cc2)c2cccc(F)c2O3)s1 [Compound 100]
38 | 500 to 10000 | CC(C)(C)c1ccc(CN2CCC3(CCN(c4ncc(C(=O)NCCN5CCCC5)s4)CC3)Oc3c(F)cccc32)cc1 [Compound 101]
39 | 500 to 10000 | CC(C)(C)c1ccc(CN2CCC3(CCN(c4ncc(C(=O)NCc5ccco5)s4)CC3)Oc3c(F)cccc32)cc1 [Compound 102]
40 | 50 to 499 | COCCNC(=O)c1cnc(N2CCC3(CC2)CCN(Cc2ccc(C(C)(C)C)cc2)c2cccc(F)c2O3)s1 [Compound 103]
41 | 50 to 499 | Cc1ccc(CNC(=O)c2cnc(N3CCC4(CC3)CCN(Cc3ccc(C(C)(C)C)cc3)c3cccc(F)c3O4)s2)o1 [Compound 104]
42 | > 10000 | CN(C)CCNC(=O)c1cnc(N2CCC3(CC2)CCN(Cc2ccc(C(C)(C)C)cc2)c2cccc(F)c2O3)s1 [Compound 105]
43 | > 10000 | CC(C)(C)c1ccc(CN2CCC3(CCN(c4ncc(C(=O)NCc5ccccn5)s4)CC3)Oc3c(F)cccc32)cc1 [Compound 106]
44 | 500 to 10000 | CN(C)CCCNC(=O)c1cnc(N2CCC3(CC2)CCN(Cc2ccc(C(C)(C)C)cc2)c2cccc(F)c2O3)s1 [Compound 107]
45 | 50 to 499 | COCCCNC(=O)c1cnc(N2CCC3(CC2)CCN(Cc2ccc(C(C)(C)C)cc2)c2cccc(F)c2O3)s1 [Compound 108]
46 | 500 to 10000 | CC(C)CCNC(=O)c1cnc(N2CCC3(CC2)CCN(Cc2ccc(C(C)(C)C)cc2)c2cccc(F)c2O3)s1 [Compound 109]
47 | 0.5 to 49 | C[C@H](O)CNC(=O)c1cnc(N2CCC3(CC2)CCN(Cc2ccc(C(C)(C)C)cc2)c2cccc(F)c2O3)s1 [Compound 110]
48 | > 10000 | CC(C)(C)c1ccc(CN2CCC3(CCN(c4ncc(C(=O)NCCc5c[nH]cn5)s4)CC3)Oc3c(F)cccc32)cc1 [Compound 111]

— patent US20120220567A1, “BENZO-FUSED OXAZEPINE COMPOUNDS AS STEAROYL-COENZYME A DELTA-9 DESATURASE INHIBITORS” (priority 2009, published 2012)
